Measurements: patent EP0000190A1, “Solutions with a local anesthetic effect” (Dr. Karl Thomae GmbH, priority 1977, dated 1979)

What was measured:
Cornea = assay: Local anaesthetic effect (touch stimulus) and corneal epithelium status after eye drops in rabbits, versus Kerakain; assay type: in vivo; settings: Kaninchen
Excerpt: Die überlegene kurzfristige lokalanästhetische Wirkung der neuen Lösungen wurde im Vergleich zu Proxymetacain (0,5%ige 2-Diäthyl-aminoäthyl-3-amino-4-propoxybenzoesäure-hydrochlorid-Lösung = Chibro® -Kerakain) am Kaninchen wie folgt geprüft: • Den Versuchstieren, die nach Spaltlampen-Untersuchung keine Schädigung des Cornea-Epithels zeigten und klinisch keine konjunktivale Entzündung aufwiesen, wurden jeweils 2 Tropfen der entsprechenden Augentropfen appliziert. Die Sensibilität der zentralen Cornea ist eine Minute nach Applikation durch Berührungsreiz, das gesamte Hornhautepithel und die Sensibilität 5, 10, 15 und 30 Minuten nach Applikation beurteilt worden. Der Untersuchen. der die Sensibilität und den Hornhaut-Epithel-Status beurteilte, war hierbei nicht darüber informiert, welches Auge jeden Tieres mit Chibro® -Kerakain behandelt war.
Die nachfolgende Tabelle enthält die aufgefundenen Versuchsergebnisse: […]

[1] = system: Mund- bzw. Rachenschleimhaut; assay: Local anaesthesia of human mouth and throat mucosa after spray from a metering pump valve; assay type: in vivo, Mensch; settings: 2%ige NA 872-Lösung, 3-8 Hübe des Pump-Dosier-Ventils, Mund- bzw. Rachenschleimhaut des Menschen, 6 Probanden
Excerpt: Die oben aufgezeigte Wirkung konnte unter Heranziehung des Aesthe-siometers nach Cochet und Bonnet am menschlichen Auge mit Tropf- bzw. bei der Anwendung als Spray-Applikation mit Hilfe des Pump-Dosier-Ventils an der Mund- bzw. Rachenschleimhaut bestätigt werden. Bei einer Konzentration von 0,5 bis 1 % NA 872 und der Appli kation von 1 bis 2 Tropfen pro Auge tritt die lokalanästhetische Wirkung innerhalb von 30 bis 60 Sekunden ein, die Wirkungsdauer betrug 15 bis 30 Minuten, bzw. bei der Applikation einer 2%igen NA 872-Lösung mittels 3-8 Hüben des Pump-Dosier-Ventils an der Mund- bzw.

Acute toxicity = settings: mouse, in vivo, po, Maus, als Hydrochlorid
[2] = 0,5 % NA 872, 2 Tropfen, 5 Minuten nach Applikation
[3] = 1,0 % NA 872, 2 Tropfen, 5 Minuten nach Applikation
[4] = 1,0 % NA 872, 2 Tropfen, 10 Minuten nach Applikation
[5] = 1,0 % NA 872, 2 Tropfen, 15 Minuten nach Applikation
[6] = 2,0 % NA 872, 2 Tropfen, 5 Minuten nach Applikation
[7] = 2,0 % NA 872, 2 Tropfen, 10 Minuten nach Applikation
[8] = Augentropfen, conclusion from the table

What does the source list for `Nc1c(Br)cc(Br)cc1CN[C@H]1CC[C@H](O)CC1` [NA 872, 2-Amino-3,5-dibrom-N-(trans-4-hydroxycyclohexyl)-benzylamin]?
Erhobener Anästhesie-Befund (A) (Cornea; 0,5 % NA 872, 2 Tropfen, 1 Minute nach Applikation): ++; Erhobener Anästhesie-Befund (A) (Cornea; [2]): +; Hornhaut-Befund (HH) (Cornea; [2]): o.B.; Hornhaut-Befund (HH) (Cornea; 0,5 % NA 872, 2 Tropfen, 10 Minuten nach Applikation): o.B.; Hornhaut-Befund (HH) (Cornea; 0,5 % NA 872, 2 Tropfen, 15 Minuten nach Applikation): o.B.; Hornhaut-Befund (HH) (Cornea; 0,5 % NA 872, 2 Tropfen, 30 Minuten nach Applikation): o.B.; Erhobener Anästhesie-Befund (A) (Cornea; 1,0 % NA 872, 2 Tropfen, 1 Minute nach Applikation): ++; Erhobener Anästhesie-Befund (A) (Cornea; [3]): +; Hornhaut-Befund (HH) (Cornea; [3]): o.B.; Erhobener Anästhesie-Befund (A) (Cornea; [4]): +; Hornhaut-Befund (HH) (Cornea; [4]): o.B.; Erhobener Anästhesie-Befund (A) (Cornea; [5]): (+); Hornhaut-Befund (HH) (Cornea; [5]): o.B.; Hornhaut-Befund (HH) (Cornea; 1,0 % NA 872, 2 Tropfen, 30 Minuten nach Applikation): o.B.; Erhobener Anästhesie-Befund (A) (Cornea; 2,0 % NA 872, 2 Tropfen, 1 Minute nach Applikation): ++; Erhobener Anästhesie-Befund (A) (Cornea; [6]): ++; Hornhaut-Befund (HH) (Cornea; [6]): o.B.; Erhobener Anästhesie-Befund (A) (Cornea; [7]): +; Hornhaut-Befund (HH) (Cornea; [7]): o.B.; Hornhaut-Befund (HH) (Cornea; 2,0 % NA 872, 2 Tropfen, 15 Minuten nach Applikation): o.B.; Hornhaut-Befund (HH) (Cornea; 2,0 % NA 872, 2 Tropfen, 30 Minuten nach Applikation): o.B.; Nebenwirkung auf das Epithel im Vergleich zur Vergleichslösung (Cornea; [8]): geringere Nebenwirkung auf das Epithel; lokalanästhetische Wirkung im Vergleich zur Vergleichslösung (Cornea; [8]): kürzere lokalanästhetische Wirkung als die Vergleichslösung; Anästhesie [1]: leichte Anästhesie; LD50 (Acute toxicity): 2720 mg/kg
